The record followed here is PubChem BioAssay (NCI).

Some test systems named below: CCRF-CEM leukemia; COLO 205 colon; DMS 273 small cell lung; M19-MEL melanoma; NCI-H226 lung; SF-268 CNS; SK-OV-3 ovarian; SNB-75 CNS; SNB-78 CNS; U251 CNS; XF 498 CNS; PC-3 prostate.
Test in all cases: NCI anticancer screen, dose series, 48 h

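Step 1: Grow cells in 96-well plates. Step 2: Expose to compound for 48 hours at 5 concentrations. Step 3: Interpolate endpoints linearly; if unreached, use highest concentration. At the TGI there is no net growth.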

Consider `CC(=O)C(=Cc1cn(C)c(=O)n(C)c1=O)C(C)=O`, for which the TGI in the assay with CCRF-CEM leukemia turned out to be 294 µM; in the assay on COLO 205 colon, 189 µM; in the assay with DMS 273 small cell lung, 225 µM; in the assay with M19-MEL melanoma it was 273 µM; with NCI-H226 lung, 293 µM; in the assay with SF-268 CNS, 526 µM. Moreover, the TGI in the assay with SK-OV-3 ovarian turned out to be 327 µM; with SNB-75 CNS, 240 µM; with SNB-78 CNS, 600 µM; in the assay on U251 CNS, 223 µM; in the assay on XF 498 CNS, 78.1 µM.

Regarding `C[s+]1c2ccccc2c2ccccc21`, the TGI with CCRF-CEM leukemia, in the assay with COLO 205 colon, in the assay on DMS 273 small cell lung, in the assay on M19-MEL melanoma, in the assay with NCI-H226 lung and in the assay with SF-268 CNS was more than 100 µM each time. For the same compound, the TGI with SNB-78 CNS, with U251 CNS and with XF 498 CNS was more than 100 µM in each case.

`CC(C)CCCC(C)[C@H]1CCC(C2C[C@@H](O)[C@@H]3CC(O)[C@@H](O)C[C@]3(CO)C2=O)[C@]1(C)CCO` (some centres undefined): the TGI in the assay on CCRF-CEM leukemia was 40.9 µM; in the assay on COLO 205 colon, 35 µM; in the assay on DMS 273 small cell lung it was more than 68.5 µM; in the assay on M19-MEL melanoma, 39 µM; with NCI-H226 lung it was more than 73.8 µM; in the assay with SF-268 CNS, 54.1 µM. Also, the TGI is 67.1 µM in the assay on SK-OV-3 ovarian; 48.7 µM in the assay with SNB-75 CNS; 85.5 µM with SNB-78 CNS; 37.7 µM in the assay with U251 CNS; more than 59.6 µM with XF 498 CNS.

On to `NC(=O)CCC(N=c1c2ccccc2n(O)c2ccccc12)C(=O)O` (centres undefined), for which the TGI in the assay with CCRF-CEM leukemia, in the assay with COLO 205 colon, with DMS 273 small cell lung, in the assay with M19-MEL melanoma, in the assay with NCI-H226 lung and in the assay with SF-268 CNS was more than 100 µM each time. Further, the TGI in the assay with SK-OV-3 ovarian, with SNB-75 CNS, in the assay with SNB-78 CNS and with U251 CNS was more than 100 µM each time.

Consider `CC1=C(CO)C(=O)OC(C(C)C2CCC3C4CC5OC56C(O)C(N5CC5)=CC(=O)C6(C)C4CCC23C)C1` (centres undefined), for which the TGI in the assay with CCRF-CEM leukemia turned out to be 7.45 µM; in the assay with DMS 273 small cell lung it was 17.9 µM; in the assay with M19-MEL melanoma, 23.5 µM; with NCI-H226 lung, 29.1 µM; with SF-268 CNS, 15.5 µM; in the assay with SNB-75 CNS it was 18.6 µM. Further, the results for the TGI in the assay on SNB-78 CNS, in the assay with U251 CNS and in the assay on XF 498 CNS were 46.9 µM, 15.1 µM and 16.4 µM, respectively.

Take `CC(C)(C)C(=O)Nc1c(C=O)ccc2[nH]cnc12`: the TGI with CCRF-CEM leukemia, with COLO 205 colon, in the assay on NCI-H226 lung, with PC-3 prostate, in the assay with SF-268 CNS and with SK-OV-3 ovarian was more than 100 µM throughout. The TGI in the assay on SNB-75 CNS and with U251 CNS was more than 100 µM each time.

In the case of `CC(Nc1ccc(Cl)cc1)c1ccncc1` (centres undefined), the TGI with CCRF-CEM leukemia was more than 100 µM; with COLO 205 colon, more than 100 µM; with NCI-H226 lung, more than 100 µM; with PC-3 prostate, more than 100 µM; in the assay with SF-268 CNS, more than 100 µM; in the assay on SK-OV-3 ovarian, 11.8 µM. The TGI in the assay with SNB-75 CNS and with U251 CNS was more than 100 µM throughout.

As for `CCOc1ccc2nc(NC(=O)C(=O)C(C(=O)c3ccccc3F)C3OC(=O)c4ccccc43)sc2c1` (centres undefined), the TGI stood at 40.1 µM in the assay with CCRF-CEM leukemia; 30.4 µM in the assay on COLO 205 colon; 51.4 µM with DMS 273 small cell lung; 27 µM with M19-MEL melanoma; 27.5 µM with NCI-H226 lung; 82 µM in the assay with SF-268 CNS. The TGI came out at 55.1 µM in the assay with SK-OV-3 ovarian; 46.4 µM in the assay on SNB-75 CNS; 74.4 µM in the assay on SNB-78 CNS; 23.8 µM in the assay on U251 CNS; 46.2 µM in the assay on XF 498 CNS.

As for `C=C1CCC[C@@H](C)C(O)[C@@H]2OC(=O)C(=C)[C@@H]2C[C@@H](OC(C)=O)[C@@]2(C)CC[C@@H]1O2` (some centres undefined), the TGI in the assay on CCRF-CEM leukemia was 6.8 µM; with COLO 205 colon it was 13.4 µM; in the assay on NCI-H226 lung, 16 µM; in the assay with PC-3 prostate, 16.2 µM; with SF-268 CNS, 15.7 µM; in the assay with SK-OV-3 ovarian it was 40.8 µM. Moreover, the TGI in the assay on SNB-75 CNS worked out at 10.1 µM; in the assay with U251 CNS it was 17.8 µM.

In the case of `N#CCCC(C=O)(CCC#N)CCC#N`, the TGI in the assay on CCRF-CEM leukemia, in the assay with COLO 205 colon, in the assay with NCI-H226 lung, in the assay on PC-3 prostate, with SF-268 CNS and in the assay on SK-OV-3 ovarian was more than 100 µM throughout. Moreover, the TGI in the assay on SNB-75 CNS and in the assay with U251 CNS was more than 100 µM in each case.

`CC(=O)CC1(CBr)Nc2ccc([N+](=O)[O-])cc2NC1=O` (centres undefined): the TGI in the assay with CCRF-CEM leukemia, with COLO 205 colon, in the assay with NCI-H226 lung, in the assay with PC-3 prostate, in the assay on SF-268 CNS and in the assay on SK-OV-3 ovarian was more than 100 µM in each case. Also, the TGI with SNB-75 CNS and with U251 CNS was more than 100 µM throughout.

As for `O=P1(N(CCCl)CCCl)Oc2ccc(Cl)cc2C(C(Cl)(Cl)Cl)c2cc(Cl)ccc2O1` (centres undefined), the TGI was more than 100 µM in the assay on CCRF-CEM leukemia; 26.5 µM with COLO 205 colon; 50.9 µM with NCI-H226 lung; more than 100 µM with PC-3 prostate; more than 100 µM in the assay with SF-268 CNS; more than 100 µM in the assay on SK-OV-3 ovarian. Moreover, the TGI in the assay with SNB-75 CNS was found to be 37.9 µM; in the assay on U251 CNS, 29.2 µM.

Regarding `CCCCCC[C@H]([C@H](C)O)n1cnc2c(N)ncnc21`, the TGI with CCRF-CEM leukemia, in the assay on COLO 205 colon, in the assay on NCI-H226 lung, in the assay with PC-3 prostate, in the assay with SF-268 CNS and in the assay with SK-OV-3 ovarian was more than 100 µM each time. The TGI in the assay with SNB-75 CNS and in the assay with U251 CNS was more than 100 µM throughout.

In the case of `Clc1ccc2c(NCCCCCCNc3ccnc4cc(Cl)ccc34)ccnc2c1`, the TGI in the assay with CCRF-CEM leukemia stood at 7.53 µM; in the assay on COLO 205 colon, 4.62 µM; with DMS 273 small cell lung, 11.7 µM; with M19-MEL melanoma, 8.83 µM; with NCI-H226 lung it was 25.3 µM; with PC-3 prostate, 18.1 µM. For the same compound, the TGI was 24.8 µM in the assay with SF-268 CNS; 17.5 µM in the assay with SK-OV-3 ovarian; 8.61 µM in the assay on SNB-75 CNS; 3.87 µM with SNB-78 CNS; 5.82 µM in the assay with U251 CNS; 2.96 µM in the assay with XF 498 CNS.
